Drawing on patent publication US20240270810A1, “PREPARATION AND APPLICATION OF POLYPEPTIDE” (GUANGDONG RAYNOVENT BIOTECH CO., LTD., priority 2021, published 2024), this text covers EC50 for 5 molecules.

For one test, the target named is T1, GIPR (Homo sapiens, UniProt P48546).
T1 construct: host or cells: CHO
T1 sequence (P48546 22-466): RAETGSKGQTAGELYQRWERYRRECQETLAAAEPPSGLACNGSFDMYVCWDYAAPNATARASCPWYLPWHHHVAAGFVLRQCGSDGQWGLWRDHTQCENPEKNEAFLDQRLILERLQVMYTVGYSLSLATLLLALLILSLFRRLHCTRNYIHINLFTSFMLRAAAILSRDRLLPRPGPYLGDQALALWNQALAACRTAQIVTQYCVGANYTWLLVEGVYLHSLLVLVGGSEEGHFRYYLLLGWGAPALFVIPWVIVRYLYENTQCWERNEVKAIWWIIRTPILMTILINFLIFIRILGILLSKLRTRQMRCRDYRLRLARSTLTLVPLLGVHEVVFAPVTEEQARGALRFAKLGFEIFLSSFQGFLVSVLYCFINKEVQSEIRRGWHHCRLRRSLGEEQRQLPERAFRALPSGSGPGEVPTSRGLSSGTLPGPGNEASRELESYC
The test is described as follows: In vitro GIPR agonistic activity test (cAMP kit). It counts as cell-based. To be noted: CHO host cells. How it is done: The cell lines were constructed by Wuxi […] (Shanghai) Co., Ltd. See details in Table 1 below. […] The test compounds were diluted at a 4-fold dilution factor in 10 points, starting from an initial concentration of 30 μM. The dilution was carried out by Bravo. • 1) 100 nL of compounds were transferred to an OptiPlate-384 plate by Echo. • 2) The OptiPlate-384 plate was centrifuged at 1000 rpm for 5 s. • 1) A GLP-1R/GIPR cell cryovial was placed in warm water at 37° C. for rapid thawing. • 2) The cell suspension was transferred into a 15 mL Transfer centrifugal tube and rinsed with 10 mL of HBSS gently. • 3) The centrifugal tube was centrifuged at 1000 rpm at room temperature for 1 min. • 4) The supernatant was discarded. • 5) The bottom cells were gently dispersed, then gently rinsed with 10 mL of HBSS, the centrifugal tube was centrifuged to settle the cells, and finally the cells were resuspended in an experimental buffer. • 6) Cell density and viability were measured by Vi-cell. • 7) The GLP-1R/GIPR cells were diluted with the experimental buffer to a concentration of 2.0*10^5/mL. • 8) […] of the diluted cell suspension was transferred into the OptiPlate-384 plate. • 9) Incubation was performed at room temperature for 30 min. • 1) 10 μL of 800 nM gradient diluted cAMP standard was added into the empty wells of the OptiPlate-384 plate. • 2) 10 μL of cAMP assay reagent was added. • 3) The OptiPlate-384 plate was covered with TopSeal-A film and incubated at room temperature for 60 min. The TopSeal-A film was removed, and readout was performed on En Vision.

In a further test the target is T2, GLP-1R (Homo sapiens, UniProt P43220).
T2 construct: host or cells: HEK293
T2 sequence (P43220 24-463, species assumed): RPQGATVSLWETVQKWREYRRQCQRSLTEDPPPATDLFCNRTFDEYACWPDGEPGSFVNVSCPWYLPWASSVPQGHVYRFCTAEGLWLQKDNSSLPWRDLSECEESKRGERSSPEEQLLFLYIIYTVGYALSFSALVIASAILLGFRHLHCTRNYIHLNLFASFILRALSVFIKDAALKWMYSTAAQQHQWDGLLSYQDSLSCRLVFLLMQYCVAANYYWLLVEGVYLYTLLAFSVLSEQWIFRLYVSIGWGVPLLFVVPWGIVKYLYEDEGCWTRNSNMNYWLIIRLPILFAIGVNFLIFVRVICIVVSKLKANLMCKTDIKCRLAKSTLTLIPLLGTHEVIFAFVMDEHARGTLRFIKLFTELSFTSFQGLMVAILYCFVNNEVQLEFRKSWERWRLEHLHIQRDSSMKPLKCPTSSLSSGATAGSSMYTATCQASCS
The test is described as follows: In vitro GLP-1R agonistic activity test (cAMP kit). The test is classed as cell-based. To be noted: HEK293 host cells. How it is done:
The cell lines were constructed by Wuxi […] (Shanghai) Co., Ltd. See details in Table 1 below. [table] [table] The test compounds were diluted at a 4-fold dilution factor in 10 points, starting from an initial concentration of 30 μM. The dilution was carried out by Bravo. • 1) 100 nL of compounds were transferred to an OptiPlate-384 plate by Echo. • 2) The OptiPlate-384 plate was centrifuged at 1000 rpm for 5 s. • 1) A GLP-1R/GIPR cell cryovial was placed in warm water at 37° C. for rapid thawing. • 2) The cell suspension was transferred into a 15 mL Transfer centrifugal tube and rinsed with 10 mL of HBSS gently. • 3) The centrifugal tube was centrifuged at 1000 rpm at room temperature for 1 min. • 4) The supernatant was discarded. • 5) The bottom cells were gently dispersed, then gently rinsed with 10 mL of HBSS, the centrifugal tube was centrifuged to settle the cells, and finally the cells were resuspended in an experimental buffer. • 6) Cell density and viability were measured by Vi-cell. • 7) The GLP-1R/GIPR cells were diluted with the experimental buffer to a concentration of 2.0*10^5/mL. • 8) […] of the diluted cell suspension was transferred into the OptiPlate-384 plate. • 9) Incubation was performed at room temperature for 30 min. • 1) 10 μL of 800 nM gradient diluted cAMP standard was added into the empty wells of the OptiPlate-384 plate. • 2) 10 μL of cAMP assay reagent was added. • 3) The OptiPlate-384 plate was covered with TopSeal-A film and incubated at room temperature for 60 min. The TopSeal-A film was removed, and readout was performed on En Vision.

In the case of `CC[C@H](C)[C@H](NC(=O)[C@H](CC(C)C)NC(=O)[C@H](Cc1c[nH]c2ccccc12)NC(=O)[C@@H]1CCCCNC(=O)CN(C(=O)COCCOCCNC(=O)COCCOCCNC(=O)CC[C@H](NC(=O)CCCCCCCCCCCCCCCCCCC(=O)O)C(=O)O)CC(=O)NCCCC[C@H](NC(=O)[C@H](CCC(N)=O)NC(=O)[C@H](C)NC(=O)[C@@H](NC(=O)[C@H](CCCCN)NC(=O)[C@H](CC(=O)O)NC(=O)[C@H](CC(C)C)NC(=O)C(C)(C)NC(=O)[C@@H](NC(=O)[C@H](CO)NC(=O)[C@H](Cc2ccc(O)cc2)NC(=O)[C@H](CC(=O)O)NC(=O)[C@H](CO)NC(=O)[C@@H](NC(=O)[C@H](Cc2ccccc2)NC(=O)[C@@H](NC(=O)CNC(=O)[C@H](CCC(=O)O)NC(=O)C(C)(C)NC(=O)[C@@H](N)Cc2ccc(O)cc2)[C@@H](C)O)[C@@H](C)O)[C@@H](C)CC)[C@@H](C)CC)C(=O)N[C@@H](CCC(=O)O)C(=O)N[C@@H](Cc2ccccc2)C(=O)N[C@@H](C(C)C)C(=O)N1)C(=O)N[C@@H](C)C(=O)NCC(=O)NCC(=O)N1CCC[C@H]1C(=O)N[C@@H](CO)C(=O)N[C@@H](CO)C(=O)NCC(=O)N[C@@H](C)C(=O)N1CCC[C@H]1C(=O)N1CCC[C@H]1C(=O)N1CCC[C@H]1C(=O)N[C@@H](CO)C(N)=O` [WX-002], the EC50 at GIPR (with 1% HSA) was 12.5 nM; on GIPR (without 1% HSA) it was 0.43 nM; on GLP-1R (with 1% HSA) it was 31.3 nM; at GLP-1R (without 1% HSA) it was 0.19 nM.

On to `CC[C@H](C)[C@H](NC(=O)[C@H](CC(C)C)NC(=O)[C@H](Cc1c[nH]c2ccccc12)NC(=O)[C@@H]1CCCCNC(=O)CN(C(=O)COCCOCCNC(=O)COCCOCCNC(=O)CC[C@H](NC(=O)CCCCCCCCCCCCCCCCCCC(=O)O)C(=O)O)CC(=O)NCCCC[C@H](NC(=O)[C@H](CCC(N)=O)NC(=O)[C@H](C)NC(=O)[C@@H](NC(=O)[C@H](CCCCN)NC(=O)[C@H](CC(=O)O)NC(=O)[C@H](CC(C)C)NC(=O)C(C)(C)NC(=O)[C@@H](NC(=O)[C@H](CO)NC(=O)[C@H](Cc2ccc(O)cc2)NC(=O)[C@H](CC(=O)O)NC(=O)[C@H](CO)NC(=O)[C@@H](NC(=O)[C@H](Cc2ccccc2)NC(=O)[C@@H](NC(=O)CNC(=O)[C@H](CCC(=O)O)NC(=O)C(C)(C)NC(=O)[C@@H](N)Cc2ccc(O)cc2)[C@@H](C)O)[C@@H](C)O)[C@@H](C)CC)[C@@H](C)CC)C(=O)N[C@@H](C)C(=O)N[C@@H](Cc2ccccc2)C(=O)N[C@@H]([C@@H](C)CC)C(=O)N1)C(=O)N[C@@H](C)C(=O)NCC(=O)NCC(=O)N1CCC[C@H]1C(=O)N[C@@H](CO)C(=O)N[C@@H](CO)C(=O)NCC(=O)N[C@@H](C)C(=O)N1CCC[C@H]1C(=O)N1CCC[C@H]1C(=O)N1CCC[C@H]1C(=O)N[C@@H](CO)C(N)=O` [WX-003], for which the EC50 on GIPR (without 1% HSA) was 1.07 nM; on GLP-1R (with 1% HSA) it was 14 nM; at GLP-1R (without 1% HSA) it was 0.54 nM.

As to `CC[C@H](C)[C@H](NC(=O)[C@H](CC(C)C)NC(=O)[C@H](Cc1c[nH]c2ccccc12)NC(=O)[C@@H]1CCCCNC(=O)CN(C(=O)COCCOCCNC(=O)COCCOCCNC(=O)CC[C@H](NC(=O)CCCCCCCCCCCCCCCCCCC(=O)O)C(=O)O)CC(=O)NCCCC[C@H](NC(=O)[C@H](CCC(N)=O)NC(=O)[C@H](C)NC(=O)[C@@H](NC(=O)[C@H](CCCCN)NC(=O)[C@H](CC(=O)O)NC(=O)[C@H](CC(C)C)NC(=O)C(C)(C)NC(=O)[C@@H](NC(=O)[C@H](CO)NC(=O)[C@H](Cc2ccc(O)cc2)NC(=O)[C@H](CC(=O)O)NC(=O)[C@H](CO)NC(=O)[C@@H](NC(=O)[C@H](Cc2ccccc2)NC(=O)[C@@H](NC(=O)CNC(=O)[C@H](CCC(=O)O)NC(=O)C(C)(C)NC(=O)[C@@H](N)Cc2ccc(O)cc2)[C@@H](C)O)[C@@H](C)O)[C@@H](C)CC)[C@@H](C)CC)C(=O)N[C@@H](C)C(=O)N[C@@H](Cc2ccccc2)C(=O)N[C@@H](C(C)C)C(=O)N1)C(=O)N[C@@H](C)C(=O)NCC(=O)NCC(=O)N1CCC[C@H]1C(=O)N[C@@H](CO)C(=O)N[C@@H](CO)C(=O)NCC(=O)N[C@@H](C)C(=O)N1CCC[C@H]1C(=O)N1CCC[C@H]1C(=O)N1CCC[C@H]1C(=O)N[C@@H](CO)C(N)=O` [WX-004], the 50% effective concentration (EC50) stood at 21.4 nM on GIPR (with 1% HSA), 1.36 nM on GIPR (without 1% HSA), 84.3 nM on GLP-1R (with 1% HSA) and 1.86 nM at GLP-1R (without 1% HSA).

Regarding `CC[C@H](C)[C@H](NC(=O)[C@H](CC(C)C)NC(=O)[C@H](Cc1c[nH]c2ccccc12)NC(=O)[C@H](CCC(N)=O)NC(=O)[C@@H](NC(=O)[C@H](Cc1ccccc1)NC(=O)[C@H](C)NC(=O)[C@@H]1CCCCNC(=O)CN(C(=O)COCCOCCNC(=O)COCCOCCNC(=O)CC[C@H](NC(=O)CCCCCCCCCCCCCCCCCCC(=O)O)C(=O)O)CC(=O)NCCCC[C@H](NC(=O)[C@H](CCCCN)NC(=O)[C@H](CC(=O)O)NC(=O)[C@H](CC(C)C)NC(=O)C(C)(C)NC(=O)[C@@H](NC(=O)[C@H](CO)NC(=O)[C@H](Cc2ccc(O)cc2)NC(=O)[C@H](CC(=O)O)NC(=O)[C@H](CO)NC(=O)[C@@H](NC(=O)[C@H](Cc2ccccc2)NC(=O)[C@@H](NC(=O)CNC(=O)[C@H](CCC(=O)O)NC(=O)C(C)(C)NC(=O)[C@@H](N)Cc2ccc(O)cc2)[C@@H](C)O)[C@@H](C)O)[C@@H](C)CC)C(=O)N[C@@H](C)C(=O)N[C@@H](CCC(N)=O)C(=O)N1)C(C)C)C(=O)N[C@@H](C)C(=O)NCC(=O)NCC(=O)N1CCC[C@H]1C(=O)N[C@@H](CO)C(=O)N[C@@H](CO)C(=O)NCC(=O)N[C@@H](C)C(=O)N1CCC[C@H]1C(=O)N1CCC[C@H]1C(=O)N1CCC[C@H]1C(=O)N[C@@H](CO)C(N)=O` [WX-006], the values for the EC50 on GIPR (without 1% HSA) and on GLP-1R (without 1% HSA) were 0.26 nM and 0.027 nM, respectively.

`CC[C@H](C)[C@H](NC(=O)[C@H](CC(C)C)NC(=O)[C@H](Cc1c[nH]c2ccccc12)NC(=O)[C@@H](NC(=O)[C@@H](NC(=O)[C@H](Cc1ccccc1)NC(=O)[C@H](C)NC(=O)[C@@H]1CCCCNC(=O)CN(C(=O)COCCOCCNC(=O)COCCOCCNC(=O)CC[C@H](NC(=O)CCCCCCCCCCCCCCCCCCC(=O)O)C(=O)O)CC(=O)NCCCC[C@H](NC(=O)[C@H](CCCCN)NC(=O)[C@H](CC(=O)O)NC(=O)[C@H](CC(C)C)NC(=O)C(C)(C)NC(=O)[C@@H](NC(=O)[C@H](CO)NC(=O)[C@H](Cc2ccc(O)cc2)NC(=O)[C@H](CC(=O)O)NC(=O)[C@H](CO)NC(=O)[C@@H](NC(=O)[C@H](Cc2ccccc2)NC(=O)[C@@H](NC(=O)CNC(=O)[C@H](CCC(=O)O)NC(=O)C(C)(C)NC(=O)[C@@H](N)Cc2ccc(O)cc2)[C@@H](C)O)[C@@H](C)O)[C@@H](C)CC)C(=O)N[C@@H](C)C(=O)N[C@@H](CCC(N)=O)C(=O)N1)C(C)C)[C@@H](C)CC)C(=O)N[C@@H](C)C(=O)NCC(=O)NCC(=O)N1CCC[C@H]1C(=O)N[C@@H](CO)C(=O)N[C@@H](CO)C(=O)NCC(=O)N[C@@H](C)C(=O)N1CCC[C@H]1C(=O)N1CCC[C@H]1C(=O)N1CCC[C@H]1C(=O)N[C@@H](CO)C(N)=O` [WX-008]: the EC50 at GIPR (without 1% HSA) was determined as 2.74 nM; at GLP-1R (without 1% HSA), 0.18 nM.
